Reference: patent US20250179049A1, “SALTS OF HETEROCYCLIC INHIBITORS OF MONOCARBOXYLATE TRANSPORTER 4 FOR THE TREATMENT OF DISEASE” (Vettore, LLC, priority 2022, published 2025)
Structures can show the parent of a compound that is named as a salt.

What was measured:
[1] = test system: bleomycin-induced lung fibrosis; assay: Bleomycin-induced lung fibrosis model; type: in vivo, mice; conditions: therapeutic mode; Compound 1 3 mg/kg BID; pirfenidone 100 mg/kg BID; nintedanib 50 mg/kg QD, oral gavage
Description: The reduction of lung fibrosis upon MCT4 inhibition is coupled with changes in serum metabolites that indicates turnover of extracellular matrix protein and increased fatty acid oxidation. […] The effects of Compound 1, alone or in combination with approved IPF drugs pirfenidone or nintedanib, were studied in the bleomycin-induced lung fibrosis model in therapeutic mode. Compound 1 was dosed at 3 mg/kg, BID; pirfenidone was dosed at 100 mg/kg, BID; and nintedanib was dosed at 50 mg/kg, QD, all via oral gavage.

[2] = Dynamic vapor sorption (DVS); type: physicochemical; conditions: 25° C.
Source text: The Form B tris salt is an off-white crystalline powder consisting of small particles. […] (ΔH=111 J/g).

[3] = Solid-state stability of API, 2 weeks storage; type: physicochemical
Description: Stability of the solid API was assessed after storage at the following conditions for 2 weeks: • 25° C./58% RH (closed) • 25° C./58% RH (open) • 40° C./75% RH (closed) • 40° C./75% RH (open) • 80° C./ambient RH (closed)

[4] = Kinetic solubility in biorelevant media; type: physicochemical; conditions: for solubility at 1 h / solubility at 4 h / solubility at 24 h: thermodynamic from solid; for solubility at 1 h: t = 1 hour; for solubility at 4 h: t = 4 hours; for solubility at 24 h: t = 24 hours
[5] = fasted-state simulated gastric fluid (FaSSGF), fassgf or other biorelevant, FaSSGF pH 1.6, room temperature
[6] = fasted-state simulated intestinal fluid (FaSSIF), FaSSIF #2 pH 6.5, room temperature
[7] = fed-state simulated intestinal fluid (FeSSIF), FeSSIF #2 pH 5.8, room temperature

Compound: Cc1ccc(=O)n(-c2ccccc2)c1 [pirfenidone, reference compound]
- Additive effect upon Ashcroft Score or αSMA quantitation when added to Compound 1 [1]: did not produce a statistically significant additive effect

Compound: COC(=O)c1ccc2c(c1)NC(=O)/C2=C(\Nc1ccc(N(C)C(=O)CN2CCN(C)CC2)cc1)c1ccccc1 [nintedanib, reference compound]
- Additive effect upon Ashcroft Score or αSMA quantitation when added to Compound 1 [1]: did not produce a statistically significant additive effect

Compound: CC(C)(OCc1cc(-c2cccc(OC3CCC3)c2)n(-c2ccccc2N2CCC2)n1)C(=O)O [tris salt Form B]
- Hygroscopicity ([2]; 5 to 95% RH): non-hygroscopic
- Weight change ([2]; between 5 and 95% RH): approximately 0.1%
- Content ([3]; 25° C. - 58% RH (c), 2 weeks): 101.1 % w/w
- Impurity RRT 0.60 ([3]; 25° C. - 58% RH (c), 2 weeks): <0.05 % area
- Impurity RRT 0.86 ([3]; 25° C. - 58% RH (c), 2 weeks): <0.05 % area
- Impurity RRT 0.89 ([3]; 25° C. - 58% RH (c), 2 weeks): <0.05 % area
- Impurity RRT 0.92 ([3]; 25° C. - 58% RH (c), 2 weeks): 0.13 % area
- Impurity RRT 1.21 ([3]; 25° C. - 58% RH (c), 2 weeks): <0.05 % area
- Main Peak ([3]; 25° C. - 58% RH (c), 2 weeks): 99.78 % Area
- Total Impurities ([3]; 25° C. - 58% RH (c), 2 weeks): 0.22 % area
- XRPD ([3]; 25° C. - 58% RH (c), 2 weeks): Consistent with Tris salt (Grp B)
- Content ([3]; 25° C. - 58% RH (o), 2 weeks): 101.0 % w/w
- Impurity RRT 0.60 ([3]; 25° C. - 58% RH (o), 2 weeks): <0.05 % area
- Impurity RRT 0.86 ([3]; 25° C. - 58% RH (o), 2 weeks): <0.05 % area
- Impurity RRT 0.89 ([3]; 25° C. - 58% RH (o), 2 weeks): <0.05 % area
- Impurity RRT 0.92 ([3]; 25° C. - 58% RH (o), 2 weeks): 0.13 % area
- Impurity RRT 1.21 ([3]; 25° C. - 58% RH (o), 2 weeks): <0.05 % area
- Main Peak ([3]; 25° C. - 58% RH (o), 2 weeks): 99.78 % Area
- Total Impurities ([3]; 25° C. - 58% RH (o), 2 weeks): 0.22 % area
- XRPD ([3]; 25° C. - 58% RH (o), 2 weeks): Consistent with Tris salt (Grp B)
- Chemical or physical changes on storage ([3]; 25° C./58% RH, 40° C./75% RH (closed and open), 80° C./ambient RH (closed), 2 weeks): No significant chemical or physical changes were observed
- Content ([3]; 40° C. - 75% RH (c), 2 weeks): 101.3 % w/w
- Impurity RRT 0.60 ([3]; 40° C. - 75% RH (c), 2 weeks): <0.05 % area
- Impurity RRT 0.86 ([3]; 40° C. - 75% RH (c), 2 weeks): <0.05 % area
- Impurity RRT 0.89 ([3]; 40° C. - 75% RH (c), 2 weeks): <0.05 % area
- Impurity RRT 0.92 ([3]; 40° C. - 75% RH (c), 2 weeks): 0.13 % area
- Impurity RRT 1.21 ([3]; 40° C. - 75% RH (c), 2 weeks): <0.05 % area
- Main Peak ([3]; 40° C. - 75% RH (c), 2 weeks): 99.75 % Area
- Total Impurities ([3]; 40° C. - 75% RH (c), 2 weeks): 0.25 % area
- XRPD ([3]; 40° C. - 75% RH (c), 2 weeks): Consistent with Tris salt (Grp B)
- Content ([3]; 40° C. - 75% RH (o), 2 weeks): 101.1 % w/w
- Impurity RRT 0.60 ([3]; 40° C. - 75% RH (o), 2 weeks): <0.05 % area
- Impurity RRT 0.86 ([3]; 40° C. - 75% RH (o), 2 weeks): <0.05 % area
- Impurity RRT 0.89 ([3]; 40° C. - 75% RH (o), 2 weeks): <0.05 % area
- Impurity RRT 0.92 ([3]; 40° C. - 75% RH (o), 2 weeks): 0.13 % area
- Impurity RRT 1.21 ([3]; 40° C. - 75% RH (o), 2 weeks): <0.05 % area
- Main Peak ([3]; 40° C. - 75% RH (o), 2 weeks): 99.77 % Area
- Total Impurities ([3]; 40° C. - 75% RH (o), 2 weeks): 0.23 % area
- XRPD ([3]; 40° C. - 75% RH (o), 2 weeks): Consistent with Tris salt (Grp B)
- Content ([3]; 80° C. (c), 2 weeks): 101.0 % w/w
- Impurity RRT 0.60 ([3]; 80° C. (c), 2 weeks): <0.05 % area
- Impurity RRT 0.86 ([3]; 80° C. (c), 2 weeks): <0.05 % area
- Impurity RRT 0.89 ([3]; 80° C. (c), 2 weeks): <0.05 % area
- Impurity RRT 0.92 ([3]; 80° C. (c), 2 weeks): 0.13 % area
- Impurity RRT 1.21 ([3]; 80° C. (c), 2 weeks): <0.05 % area
- Main Peak ([3]; 80° C. (c), 2 weeks): 99.75 % Area
- Total Impurities ([3]; 80° C. (c), 2 weeks): 0.25 % area
- XRPD ([3]; 80° C. (c), 2 weeks): Consistent with Tris salt (Grp B)
- Content ([3]; Initial): 101.2 % w/w
- Impurity RRT 0.60 ([3]; Initial): <0.05 % area
- Impurity RRT 0.86 ([3]; Initial): <0.05 % area
- Impurity RRT 0.89 ([3]; Initial): <0.05 % area
- Impurity RRT 0.92 ([3]; Initial): 0.13 % area
- Impurity RRT 1.21 ([3]; Initial): <0.05 % area
- Main Peak ([3]; Initial): 99.81 % Area
- Total Impurities ([3]; Initial): 0.19 % area
- XRPD ([3]; Initial): Consistent with Tris salt (Grp B)
- Solubility description ([4]; FaSSGF after 1, 4 and 24 hours): practically insoluble
- solubility at 1 h [4, 5]: 0.46 µg/mL
- solubility at 4 h [4, 5]: 0.35 µg/mL
- solubility at 24 h [4, 5]: 0.39 µg/mL
- solubility ([4]; fasted-state simulated intestinal fluid (FaSSIF), pH 6.5, thermodynamic from solid, FaSSIF, before gradual decrease, read-out: Solubility, initial): ≥ 3000 µg/mL
- solubility at 1 h [4, 6]: 1110 µg/mL
- solubility at 4 h [4, 6]: 851 µg/mL
- solubility at 24 h [4, 6]: 733 µg/mL
- solubility kinetic ([4]; fed-state simulated intestinal fluid (FeSSIF), pH 5.8, thermodynamic from solid, FeSSIF, before precipitation, read-out: Kinetic solubility, initially in solution): ≥ 3000 µg/mL
- solubility at 1 h [4, 7]: 99 µg/mL
- solubility at 4 h [4, 7]: 96 µg/mL
- solubility at 24 h [4, 7]: 95 µg/mL
